Data on four cell lines can be found in the supplement of paper PMC10307832.

Common to all, as to assay: relative viability (nuclei count vs DMSO), 5 days (fraction); higher = more cells survive
Compound in test [1]: CC1(C)CNc2cc(NC(=O)c3cccnc3NCc3ccncc3)ccc21 [Motesanib] + Nc1nc2[nH]cc(CCc3ccc(C(=O)N[C@@H](CCC(=O)O)C(=O)O)cc3)c2c(=O)[nH]1 [Pemetrexed] (partner 0.2 µM)
In outline: (§1)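 One day after seeding in 1536-well plates, lung cancer cell lines were dosed by pin tool. Dosing was either single-drug or a fixed anchor-drug dose plus five library-drug doses (not always all listed) in √10 steps. After 5 days, nuclei were stained in one fix-and-stain step and counted on 4× images, and relative viability is the nuclei count of treated wells over that of vehicle wells, given as the median of duplicate plates.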

Compound in test [2]: CC1(C)CNc2cc(NC(=O)c3cccnc3NCc3ccncc3)ccc21 [Motesanib] + Cc1nc(Nc2ncc(C(=O)Nc3c(C)cccc3Cl)s2)cc(N2CCN(CCO)CC2)n1 [Dasatinib] (partner 0.075 µM)
Summed up: as §1

Compound in test [3]: CC1(C)CNc2cc(NC(=O)c3cccnc3NCc3ccncc3)ccc21 [Motesanib] + C[C@]1(O)C[C@@H](c2nc(-c3ccc4ccc(-c5ccccc5)nc4c3)c3c(N)nccn32)C1 [Linsitinib] (partner 1 µM)
Summed up:
as §1

Compound in test [4]: C[C@@]1(C(=O)Nc2ccc(F)nc2)CCCN1c1nc(Nc2cc(C3CC3)n[nH]2)c2cccn2n1 + CS(=O)(=O)CCNCc1ccc(-c2ccc3ncnc(Nc4ccc(OCc5cccc(F)c5)c(Cl)c4)c3c2)o1 [Lapatinib] (partner 2 µM)
In outline:
as §1

As to NCI-H1395, the relative viability in test [1] (first compound 0.01 µM) was 0.923; in test [1] (first compound 0.03162 µM) it was 0.815; in test [1] (first compound 0.1 µM) it was 0.826; in test [1] (first compound 0.3162 µM), 0.881; in test [1] (first compound 1 µM), 0.765; in test [2] (first compound 0.01 µM) it was 0.425. Besides, the relative viability in test [2] (first compound 0.03162 µM) was 0.476; in test [2] (first compound 0.1 µM) it was 0.42; in test [2] (first compound 0.3162 µM) it was 0.443; in test [2] (first compound 1 µM), 0.417; in test [3] (first compound 0.01 µM), 0.992; in test [3] (first compound 0.03162 µM) it was 1.03. For the same cell line, the relative viability in test [3] (first compound 0.1 µM) amounted to 1; in test [3] (first compound 0.3162 µM), 1.11; in test [3] (first compound 1 µM), 1.35; in test [4] (first compound 0.04 µM) it was 1.17; in test [4] (first compound 0.1265 µM) it was 0.86; in test [4] (first compound 0.4 µM), 0.885. For the same cell line, in test [4] (first compound 1.265 µM), the relative viability is 0.988.

For NCI-H358, the relative viability in test [1] (first compound 0.01 µM) is 0.161; in test [1] (first compound 0.03162 µM), 0.162; in test [1] (first compound 0.1 µM) it was 0.169; in test [1] (first compound 0.3162 µM) it was 0.164; in test [1] (first compound 1 µM), 0.166; in test [2] (first compound 0.01 µM), 0.14. Further, the relative viability was determined as 0.155 in test [2] (first compound 0.03162 µM); 0.133 in test [2] (first compound 0.1 µM); 0.2 in test [2] (first compound 0.3162 µM); 0.158 in test [2] (first compound 1 µM); 0.7 in test [3] (first compound 0.01 µM); 0.818 in test [3] (first compound 0.03162 µM). Moreover, the relative viability in test [3] (first compound 0.1 µM) was found to be 0.712; in test [3] (first compound 0.3162 µM) it was 0.785; in test [3] (first compound 1 µM), 0.905; in test [4] (first compound 0.04 µM) it was 0.304; in test [4] (first compound 0.1265 µM) it was 0.22; in test [4] (first compound 0.4 µM) it was 0.259. In addition, the relative viability in test [4] (first compound 1.265 µM) came out at 0.251.

Take NCI-H838: the relative viability in test [1] (first compound 0.01 µM) came to 0.23; in test [1] (first compound 0.03162 µM) it was 0.248; in test [1] (first compound 0.1 µM), 0.26; in test [1] (first compound 0.3162 µM) it was 0.231; in test [1] (first compound 1 µM) it was 0.239; in test [2] (first compound 0.01 µM) it was 0.301. Further, the relative viability is 0.274 in test [2] (first compound 0.03162 µM); 0.333 in test [2] (first compound 0.1 µM); 0.307 in test [2] (first compound 0.3162 µM); 0.391 in test [2] (first compound 1 µM); 1.05 in test [3] (first compound 0.01 µM); 1.09 in test [3] (first compound 0.03162 µM). In addition, the relative viability turned out to be 1.06 in test [3] (first compound 0.1 µM); 1.08 in test [3] (first compound 0.3162 µM); 1.07 in test [3] (first compound 1 µM); 0.895 in test [4] (first compound 0.04 µM); 0.85 in test [4] (first compound 0.1265 µM); 0.597 in test [4] (first compound 0.4 µM). Also, in test [4] (first compound 1.265 µM), the relative viability was found to be 0.622.

For CAL-12T, the relative viability was 1.17 in test [1] (first compound 0.01 µM); 1.17 in test [1] (first compound 0.03162 µM); 1.19 in test [1] (first compound 0.1 µM); 1.16 in test [1] (first compound 0.3162 µM); 1.08 in test [1] (first compound 1 µM); 0.414 in test [2] (first compound 0.01 µM). The relative viability in test [2] (first compound 0.03162 µM) turned out to be 0.339; in test [2] (first compound 0.1 µM), 0.479; in test [2] (first compound 0.3162 µM) it was 0.522; in test [2] (first compound 1 µM) it was 0.546; in test [3] (first compound 0.01 µM), 0.81; in test [3] (first compound 0.03162 µM) it was 0.801. Further, the relative viability in test [3] (first compound 0.1 µM) came out at 0.876; in test [3] (first compound 0.3162 µM), 0.882; in test [3] (first compound 1 µM), 0.822; in test [4] (first compound 0.04 µM) it was 0.8; in test [4] (first compound 0.1265 µM) it was 0.442; in test [4] (first compound 0.4 µM), 0.564. The relative viability in test [4] (first compound 1.265 µM) is 0.555.
